“And” between values parts separate entries of the source, which are not always exact repeats. Identical values can stand only once. Like-named read-outs stand apart in the source and are kept apart here.
What was measured:
[1] = tested on: SARS-CoV-2 (strain: BEI_USA-WA1/2020); assay: microbe, parasite or virus in culture; assay type: cell-based; conditions: Calu-3, 4 h pretreatment
[2] = tested on: SARS-CoV-2; assay: microbe, parasite or virus in culture; assay type: cell-based; conditions: for EC50 / EC90: Calu-3, plaque assay; for EC90: estimated
[3] = tested on: Adenovirus (Type 5); assay: CPE antiviral assay (MTS), Adenovirus in HeLa cells; assay type: cell-based; conditions: CPE 6 days, at the concentrations tested
[4] = tested on: HIV-1 (IIIB); assay: CPE antiviral assay (MTS), HIV-1 in MT-4 cells; assay type: cell-based; conditions: CPE 6 days, at the concentrations tested
Experimental: (§1) Viruses and cells were mixed in the presence of Balicatib (HB-121) and incubated for the assay duration as specified in Table 1. […] An antiviral effect or cytoprotective effect was considered to be observed when therapeutic agent (Balicatib or positive control indicated in Table 1) prevented virus replication. A standardized plate format was used for cytoprotective assays. […] Samples were evaluated for antiviral efficacy with triplicate measurements to determine cytotoxicity, if detectable. […]
(§2) At assay termination, the assay plates were stained with the soluble tetrazolium-based dye MTS (CellTiter®96 Reagent, Promega) to determine cell viability and quantify compound toxicity. MTS is metabolized by the mitochondrial enzymes of metabolically active cells to yield a soluble formazan product, allowing the rapid quantitative analysis of cell viability and compound cytotoxicity. […] Adhesive plate sealers were used in place of the lids, the sealed plates were inverted several times to mix the soluble formazan product and the plate was read spectrophotometrically at 490/650 nm with a Molecular Devices SpectraMax i3 plate reader. […]

[5] = tested on: Respiratory syncytial virus (RSV); assay: CPE antiviral assay (MTS), RSV in HEp-2 cells; assay type: cell-based, Long; conditions: CPE 5 days, at the concentrations tested
Experimental: as §1, §2

[6] = tested on: Enterovirus 71; assay: CPE (cytoprotection) antiviral assay with MTS readout, Enterovirus 71 in RD cells; assay type: cell-based, Enterovirus (EV-71(H)), strain 71H; conditions: for EC50: 50% inhibition of virus replication, read-out: EC 50% (EC50)
Experimental: Viruses and cells were mixed in the presence of Balicatib (HB-121) and incubated for the assay duration as specified in Table 1. […] An antiviral effect or cytoprotective effect was considered to be observed when therapeutic agent (Balicatib or positive control indicated in Table 1) prevented virus replication. A standardized plate format was used for cytoprotective assays. Each plate contained cell control wells (cells only), virus control wells (cells plus virus), therapeutic agent cytotoxicity wells (cells plus therapeutic agent only), therapeutic agent colorimetric control wells (therapeutic agent only), background control wells (media only), as well as experimental wells (therapeutic agent plus cells plus virus). Samples were evaluated for antiviral efficacy with triplicate measurements to determine cytotoxicity, if detectable. […] Interferon (IFN) was used as positive controls in the assays were noted as IU/mL (bioactivity defined by International Units/mL was used from the certificate of analysis information provided by the vendor, PBL Assay Science, Piscataway, NJ). In Table 2, fields labeled as “Drug 1” or “Drug 2” indicate Cells + Virus + Drug; fields labeled as “Tox 1” or “Tox 2” indicate Cells + Drug 1 or Drug 2, respectively (toxicity tested in duplicate); Cells labeled as “Color 1” or “Color 2” = Media + Drug 1 or Drug 2, respectively (colorimetric background, no cells).
At assay termination, the assay plates were stained with the soluble tetrazolium-based dye MTS (CellTiter®96 Reagent, Promega) to determine cell viability and quantify compound toxicity. MTS is metabolized by the mitochondrial enzymes of metabolically active cells to yield a soluble formazan product, allowing the rapid quantitative analysis of cell viability and compound cytotoxicity. […] At termination of the assay, 10-25 µL of MTS reagent was added per well (10% final concentration based on volume) and the microtiter plates were then incubated for 2-3 hours at 37° C., (except Rhinovirus assay plates, which were incubated at 33° C.) 5% CO2 to assess cell viability. Adhesive plate sealers were used in place of the lids, the sealed plates were inverted several times to mix the soluble formazan product and the plate was read spectrophotometrically at 490/650 nm with a Molecular Devices SpectraMax i3 plate reader.
Using an in-house computer program, the CPE data analysis was conducted and included the calculation of EC50 (50% inhibition of virus replication), EC95 (95% inhibition of virus replication), CC50 (50% cytotoxicity), CC95 (95% cytotoxicity) and selectivity index values (SI = CC/EC; also referred to as Antiviral Index or AI).
The minimum inhibitory drug concentration that reduced plaque formation by 50% (EC50) and the minimum drug concentration that inhibited cell growth by 50% (CC50) were calculated. The selectivity index (SI) for each active compound was determined by dividing the CC50 by the EC50.

[7] = tested on: Parainfluenza Type 3; assay: CPE antiviral assay (MTS), Parainfluenza in LLC-MK2 7.1 cells; assay type: cell-based, Parainfluenza Type 3 C243; conditions: CPE 7 days, at the concentrations tested
Experimental: as §1, §2

[8] = in vitro; conditions: human
[9] = tested on: Calu-3 human cells
[10] = tested on: Measles; assay: CPE antiviral assay (MTS), Measles in MRC-5 cells; assay type: cell-based, Measles Virus (Edmonston); conditions: CPE 10 days, at the concentrations tested
Experimental: as §1, §2

[11] = tested on: Rhinovirus 14 (HRV 14); assay: CPE antiviral assay (MTS), Rhinovirus 14 in H1 HeLa cells; assay type: cell-based, strain 1059; conditions: 33° C., CPE 4 days, at the concentrations tested
[12] = Cytotoxicity assay (MTS dye reduction) in the cells of the Enterovirus assay; assay type: cell-based; conditions: human
Experimental: (§3) Viruses and cells were mixed in the presence of Balicatib (HB-121) and incubated for the assay duration as specified in Table 1. […] An antiviral effect or cytoprotective effect was considered to be observed when therapeutic agent (Balicatib or positive control indicated in Table 1) prevented virus replication. A standardized plate format was used for cytoprotective assays. Each plate contained cell control wells (cells only), virus control wells (cells plus virus), therapeutic agent cytotoxicity wells (cells plus therapeutic agent only), therapeutic agent colorimetric control wells (therapeutic agent only), background control wells (media only), as well as experimental wells (therapeutic agent plus cells plus virus). Samples were evaluated for antiviral efficacy with triplicate measurements to determine cytotoxicity, if detectable. […] Interferon (IFN) was used as positive controls in the assays were noted as IU/mL (bioactivity defined by International Units/mL was used from the certificate of analysis information provided by the vendor, PBL Assay Science, Piscataway, NJ). […]
as §2
(§4) Cells were seeded at 2,500 to 40,000 cells per well in 96-well plates in replication medium as specified in Table 3. […] After the assay readout (duration) as specified in Table 1, cell viability was determined using MTS dye reduction. […]

[13] = tested on: RD cells; assay: as above; assay type: cell-based; conditions: RD cells, 4 days
Experimental: as §3, §2, §4

[14] = tested on: Coxsackie (A7) (CoxA7); assay: CPE antiviral assay (MTS), Coxsackie A7 in LLC-MK2 7.1 cells; assay type: cell-based; conditions: CPE 4 days, at the concentrations tested
[15] = Plasma concentration of Balicatib after oral dosing, based on human clinical dosing; conditions: 400 mg oral dosing, EC50 against SARS-CoV-2
[16] = tested on: Influenza B (Flu B.Bris); assay: CPE antiviral assay (MTS), Influenza B in MDCK cells; assay type: cell-based; conditions: CPE 3 days, at the concentrations tested
[17] = tested on: Influenza A (Flu A. Cal); assay: CPE antiviral assay (MTS), Influenza A in MDCK cells; assay type: cell-based, A/California/07/2009; conditions: CPE 3 days, at the concentrations tested
Experimental: as §1, §2

[18] = tested on: Dengue virus, serotype 2 (DENV2); assay: CPE antiviral assay (MTS), Dengue virus in BHK-21 cells; assay type: cell-based, New Guinea C; conditions: CPE 5 days, at the concentrations tested
Experimental: as §1, §2

[19] = tested on: SARS-CoV-2 hCoV-19/USA/WA1/2020; assay type: cell-based
[20] = Severe acute respiratory syndrome coronavirus 2

## C[C@@H]1CS/C(=N\NC(=O)C(=O)[C@@H](NC(=O)C2CCCCCC2)C2CCOCC2)N1C [ONO-5334]
[1]; MOI 0.01, 48 h post-infection (FIG. 2, FIG. 3)
  antiviral activity (percentage of virus infected cells vs concentration): demonstrated antiviral activity
[2]; 1 µM (Table 7)
  % Inhibition: 79%
[2]; 10 µM (Table 7)
  % Inhibition: 100%
[2]; estimated from 1 and 10 µM
  EC50: < 1 µM

## CCCN1CCN(c2ccc(C(=O)NC3(C(=O)NCC#N)CCCCC3)cc2)CC1 [Balicatib]
[3]
  antiviral efficacy: not effective
[1]; Severe acute respiratory syndrome coronavirus 2, MOI 0.01, 48 h post-infection, % infected cells (FIG. 1), read-out: approximate EC50
  EC50: 0.25 to 0.5 µM
[4]
  antiviral efficacy: not effective
[5]
  antiviral efficacy: not effective
[6]; 25% inhibition of virus replication, RD cells, CPE 4 days
  EC 25%: 5.85 µM
[6]; RD cells, CPE 4 days, listed as HB-121
  EC50: 22.1 µM
[6]; 95% inhibition of virus replication, RD cells, CPE 4 days
  EC 95% (EC95): >30.0 µM
[6]; Enterovirus A, RD, 96 h, RD cells, CPE 4 days
  EC50: ~20 µM
[6]; SI = CC50/EC50
  Selectivity Index (SI) 50%: >1.36
[6]; SI = CC/EC at 25%
  Selectivity Index (SI) 25%: >5.13
[7]
  antiviral efficacy: not effective
[8]
  CC50: > 100 µM
[9]; 100 µM (Table 6)
  Cell Appearance: No CPEs
[9]; 100 µM, 24 hr, 98.7% viability at seeding
  Viability (%) at 24 hr time point: 71.0% and 72.1%
[9]; 100 µM, Calu-3
  effect on cell growth: little to no effect on cell growth
  effect on cellular viability: does not alter cellular viability
[9]; 100 µM, seeded at 2.0E5 per well, 24 hr
  Count (cells/ml) at 24 hr time point: 1.8e5 cells/ml and 1.6e5 cells/ml
[10]
  antiviral efficacy: not effective
[11]
  antiviral efficacy: not effective
[12]
  CC50 at 4 days: > 30 µM
[13]; 25% cytotoxicity
  CC 25%: > 30.0 µM
[13]; 95% cytotoxicity
  CC 95% (CC95): > 30.0 µM
[14]
  antiviral efficacy: not effective
[15]
  time plasma concentration is above EC50: 16 to 20 h
[16]
  antiviral efficacy: not effective
[17]
  antiviral efficacy: not effective
[18]
  antiviral efficacy: not effective
[2]; 100 nM, 0.1 µM
  Overall % Inhibition (average of two experiments) Combined: 57.75%
[2]; 10 µM
  Overall % Inhibition (average of two experiments) Combined: 99.4%
[2]; Calu-3 cells, calculated from CC50 and EC50
  Selectivity Index (SI): > 300
[2]; Severe acute respiratory syndrome coronavirus 2, Calu-3, 100 nM, read-out: Overall % Inhibition (average of two experiments) Combined
  inhibition at 0.1 µM: ~57%
[2]; Severe acute respiratory syndrome coronavirus 2, Calu-3, 300 nM, read-out: Overall % Inhibition (average of two experiments) Combined
  inhibition at 0.3 µM: 90%
[2]; Severe acute respiratory syndrome coronavirus 2, Calu-3, 1 µM, read-out: Overall % Inhibition (average of two experiments) Combined
  inhibition at 1 µM: ~68%
[2]; Severe acute respiratory syndrome coronavirus 2, Calu-3, 3 µM, read-out: Overall % Inhibition (average of two experiments) Combined
  inhibition at 3 µM: ~100%
[2]; Severe acute respiratory syndrome coronavirus 2, Calu-3, 10 µM, read-out: Overall % Inhibition (average of two experiments) Combined
  inhibition at 10 µM: ~100%
[2]; Severe acute respiratory syndrome coronavirus 2, Calu-3, 30 µM, read-out: Overall % Inhibition (average of two experiments) Combined
  inhibition at 30 µM: ~100%
[2]; Severe acute respiratory syndrome coronavirus 2, Calu-3, 72 h, 100 nM, MOI 0.1, 72 h, read-out: % Inhibition Experiment 1
  inhibition at 0.1 µM: 97.3%
[2]; Severe acute respiratory syndrome coronavirus 2, Calu-3, 72 h, 100 nM, MOI 0.1, 72 h, read-out: % Inhibition Experiment 2
  inhibition at 0.1 µM: 18%
[2]; Severe acute respiratory syndrome coronavirus 2, Calu-3, 72 h, 300 nM, MOI 0.1, 72 h, read-out: % Inhibition Experiment 2
  inhibition at 0.3 µM: 90%
[2]; Severe acute respiratory syndrome coronavirus 2, Calu-3, 72 h, 1 µM, MOI 0.1, 72 h, read-out: % Inhibition Experiment 1
  inhibition at 1 µM: 64%
[2]; Severe acute respiratory syndrome coronavirus 2, Calu-3, 72 h, 1 µM, MOI 0.1, 72 h, read-out: % Inhibition Experiment 2
  inhibition at 1 µM: 72.5%
[2]; Severe acute respiratory syndrome coronavirus 2, Calu-3, 72 h, 3 µM, MOI 0.1, 72 h, read-out: % Inhibition Experiment 2
  inhibition at 3 µM: 100%
[2]; Severe acute respiratory syndrome coronavirus 2, Calu-3, 72 h, 10 µM, MOI 0.1, 72 h, read-out: % Inhibition Experiment 1
  inhibition at 10 µM: 98.8%
[2]; Severe acute respiratory syndrome coronavirus 2, Calu-3, 72 h, 10 µM, MOI 0.1, 72 h, read-out: % Inhibition Experiment 2
  inhibition at 10 µM: 100%
[2]; Severe acute respiratory syndrome coronavirus 2, Calu-3, 72 h, 30 µM, MOI 0.1, 72 h, read-out: % Inhibition Experiment 2
  inhibition at 30 µM: 100%
[2]; [20]
  EC90: 1 to 3 µM
[2]; Severe acute respiratory syndrome coronavirus 2, estimated from two studies
  EC50: 0.05 to 0.6 µM
[19]; 0.3 µM (lowest test concentration), A549-hACE2, MOI 0.1, 24 hours
  titer reduction in virus titer (TCID50): > 3 log
[19]; 5 µM, A549-hACE2, MOI 0.1, 24 hours
  titer reduction vs virus without Balicatib (TCID50): more than 6 log
[19]; A549-hACE2 cells, 24 hours
  reduction of SARS-CoV-2 WA1/2020: significant reduction

## CC(C)(F)C[C@H](N[C@@H](c1ccc(-c2ccc(S(C)(=O)=O)cc2)cc1)C(F)(F)F)C(=O)NC1(C#N)CC1 [Odanacatib]
[2]; Severe acute respiratory syndrome coronavirus 2, Calu-3, 1 µM (Table 7), read-out: % Inhibition
  inhibition at 1 µM: 48.4%
[2]; Severe acute respiratory syndrome coronavirus 2, Calu-3, 10 µM (Table 7), read-out: % Inhibition
  inhibition at 10 µM: 97.1%
[2]; [20]
  EC90: 1 to 10 µM
[2]; Severe acute respiratory syndrome coronavirus 2, estimated from 1 and 10 µM
  EC50: ~1 µM

Source: patent publication US20230142126A1, “METHODS AND COMPOSITIONS FOR THE TREATMENT OF VIRAL DISEASES” (priority 2020, published 2023)
